Like-named read-outs stand apart in the source and are kept apart here.
Assays:
[1] = target: T1, CRTH2 (Homo sapiens (Human), UniProt Q9Y5Y4); test: CRTH2 inhibitory activity in CRTH2-expressing cells (PGD2-induced intracellular calcium increase, K562); assay type: cell-based; conditions: 200 nM PGD2, read-out: IC50, inhibition of intracellular calcium concentration increase induced by PGD2
Experimental: CRTH2 inhibitory activities of compounds were determined as inhibition activity of intra-cellular calcium concentration increase induced by PGD2 in CRTH2-expressing cells.
CRTH2-expressing K562 cells were suspended at concentration of 2×10^6 cells/ml in buffer (10 mM HEPES, pH 7.4, 0.1% Bovine serum albumin). Cells were incubated with […] (4 μM) for 30 min at room temperature. Cells were washed, resuspended and mixed with various concentration of compounds of the present invention. After 2 min, cells were treated with 200 nM of PGD2. Then intracellular calcium concentration was measured using intracellular ion analyzer (FDSS3000). Inhibition ratio was defined by comparing intracellular calcium concentration increase with and without compound, and IC50 for each compound was calculated from inhibitory curve.

[2] = Solubility test (1% DMSO addition, artificial intestinal juice pH 6.8); assay type: physicochemical; conditions: fassgf or other biorelevant, kinetic from dmso stock, artificial intestinal juice pH 6.8, 16 hours at 25° C.
Experimental: A 10 mmol/L solution of the compound of the present invention is prepared with DMSO, and 6 μL of the compound solution is added to 594 μL of an artificial intestinal juice (water and 118 mL of 0.2 mol/L NaOH reagent are added to 250 mL of 0.2 mol/L potassium dihydrogen phosphate reagent to reach 1000 mL) with a pH of 6.8. The mixture is left standing for 16 hours at 25° C., and the mixture is vacuum-filtered. The filtrate is two-fold diluted with methanol/water=1/1 (V/V), and the compound concentration in the filtrate is measured with HPLC or LC/MS/MS by the absolute calibration method.

[3] = target: T1, CRTH2; test: CRTH2 receptor binding inhibitory activity ([3H]-PGD2 displacement, membranes of CRTH2-expressing K562 cell); conditions: [3H]-PGD2 displacement, membrane of CRTH2-expressing K562 cell, read-out: Ki
Summary of the method: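 Incubation ran 60 min at room temperature using 20 μg/well membrane from CRTH2-expressing K562 cells in pH 7.4 Tris/HCl (50 mM) with 10 mM MgCl2.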

[4] = target: Human DP1 receptor (Homo sapiens (Human), UniProt Q13258); test: Human DP1 inhibitory activity in DP1-expressing cell (PGD2-induced cAMP); assay type: cell-based
Experimental: Compounds were categorized as AA (cAMP is less than 100 nM) and A (cAMP is more than 100 nM and less than 5000 nM) as shown in Table 99 and 100.

[5] = target: DP receptor (Homo sapiens (Human), UniProt Q13258); test: DP inhibitory activity in human platelets (PGD2-induced cAMP increase in platelet rich plasma, HTRF); assay type: cell-based; conditions: IC50 of PGD2 (300 nM)-induced cAMP increase, read-out: PRP
Experimental: Thirty milliliter of blood was drown from healthy human into a syringe preloaded with 1/9 volume of 3.8% citrate sodium. The blood was centrifuged with 180 g for 10 min at room temperature and the upper plasma layer was collected as platelet rich plasma (PRP). The PRP was transferred to plate and treated with 3-isobutyl-1-methylxanthin (IBMX; […]) for 5 min. Then the compounds of the present invention were added to the plate and after 10 min, 300 nM of PGD2 was added. The reaction was stopped with 1 mmol/l hydrogenchlolide after 2 min of PGD2 addition, and platelet was lysed by adding 12% Triton X-100. The concentration of cAMP in the supernatant of the platelet lysate was quantified using homogenous time resolved fluorescence (HTRF). Inhibition ratio was defined by cAMP increase with and without compound, and […] for each compound was calculated from inhibitory curve.

[6] = target: T1, CRTH2; test: CRTH2 inhibitory activity in human eosinophil (PGD2 induced eosinophil shape change); assay type: cell-based; conditions: human peripheral blood, 40 nM PGD2, forward scatter; read-out: IC50, inhibition of PGD2 induced eosinophil shape change
Experimental: CRTH2 inhibitory activity in human eosinophil was determined as inhibitory activity of PGD2 induced eosinophil shape change.
Human peripheral blood was mixed with compounds of the present invention at 37° C. After 5 min, the blood was treated with 40 nM of PGD2 for 10 min and fixed. The blood was hemolyzed and centrifuged. Blood cells were resuspended in PBS and measured forward scatter (FS) using flow cytometer (FACSAria). Inhibition ratio was defined by comparing FS with and without compound, and IC50 for each compound was calculated from inhibitory curve.

[7] = Metabolism stability test; assay type: in vitro ADME; conditions: human liver microsomes, 30 minutes, 37° C., NADPH, 0.5 μmol/L of the compound
Experimental: Using a commercially available pooled human hepatic microsomes, a compound of the present invention was reacted for a constant time, a remaining rate was calculated by comparing a reacted sample and an unreacted sample, thereby, a degree of metabolism in liver was assessed.
A reaction was performed (oxidative reaction) at 37° C. for 0 minute or 30 minutes in the presence of 1 mmol/L NADPH in 0.2 mL of a buffer (50 mmol/L Tris-HCl pH 7.4, 150 mmol/L potassium chloride, 10 mmol/L magnesium chloride) containing 0.5 mg protein/mL of human liver microsomes. After the reaction, 50 μL of the reaction mixture was added to 100 μL of a methanol/acetonitrile=1/1 (v/v), mixed and centrifuged at 3000 rpm for 15 minutes. The compound of the present invention in the supernatant was quantified by LC/MS/MS, and a remaining amount of the compound of the present invention after the reaction was calculated, letting a compound amount at 0 minute reaction time to be 100%. Glucuronidation reaction was in the presence of 5 mM UDP-glucuronic acid in place of NADPH, followed by similar operations.

[8] = target: CYP2C9 (Homo sapiens (Human), UniProt P11712); test: CYP inhibition test, tolbutamide methyl-hydroxylation; assay type: in vitro ADME; conditions: pooled human hepatic microsome, 100 μmol/L tolbutamide
Description: (§1) Using commercially available pooled human hepatic microsome, and employing, as markers, 7-ethoxyresorufin O-deethylation (CYP1A2), tolbutamide methyl-hydroxylation (CYP2C9), mephenyloin 4′-hydroxylation (CYP2C19), dextromethorphan O-demethylation (CYP2D6), and terfenedine hydroxylation as typical substrate metabolism reactions of human main five CYP enzyme forms (CYP1A2, 2C9, 2C19, 2D6, 3A4), an inhibitory degree of each metabolite production amount by a compound of the present compound was assessed.
(§2) The reaction conditions were as follows: substrate, 0.5 μmol/L ethoxyresorufin (CYP1A2), 100 μmol/L tolbutamide (CYP2C9), 50 μmol/L S-mephenyloin (CYP2C19), 5 μmol/L dextromethorphan (CYP2D6), 1 μmol/L terfenedine (CYP3A4); reaction time, 15 minutes; reaction temperature, 37° C.; enzyme, pooled human hepatic microsome 0.2 mg protein/mL; concentration of a compound of the present invention, 1, 5, 10, 20 μmol/L (four points).
(§3) Each five kinds of substrates, human hepatic microsome, or a compound of the present invention in 50 mM Hepes buffer as a reaction mixture was added to a 96-well plate at the composition as described above, NADPH, as a cofactor was added to initiate metabolism reactions as markers and. After the incubation at 37° C. for 15 minutes, a methanol/acetonitrile=1/1 (v/v) solution was added to stop the reaction. After the centrifugation at 3000 rpm for 15 minutes, resorufin (CYP1A2 metabolite) in the supernatant was quantified by a fluorescent multilabel counter and tolbutamide hydroxide (CYP2C9 metabolite), mephenyloin 4′ hydroxide (CYP2C19 metabolite), dextrorphan (CYP2D6 metabolite), and terfenadine alcohol (CYP3A4 metabolite) were quantified by LC/MS/MS.

[9] = target: CYP2D6 (Homo sapiens (Human), UniProt P10635); test: CYP inhibition test, dextromethorphan O-demethylation; assay type: in vitro ADME; conditions: pooled human hepatic microsome, 5 μmol/L dextromethorphan
Description: as §1, §2, §3

[10] = target: CYP2C19 (Homo sapiens (Human), UniProt P33261); test: CYP inhibition test, mephenyloin 4'-hydroxylation; assay type: in vitro ADME; conditions: pooled human hepatic microsome, 50 μmol/L S-mephenyloin
Description: as §1, §2, §3

[11] = target: CYP3A4 (Homo sapiens (Human), UniProt P08684); test: CYP inhibition test, terfenedine hydroxylation; assay type: in vitro ADME; conditions: pooled human hepatic microsome, 1 μmol/L terfenedine
Description: as §1, §2, §3

[12] = target: CYP1A2 (Homo sapiens (Human), UniProt P05177); test: CYP inhibition test, 7-ethoxyresorufin O-deethylation; assay type: in vitro ADME; conditions: pooled human hepatic microsome, 0.5 μmol/L ethoxyresorufin
Description: as §1, §2, §3

[13] = target: CYP3A4 enzyme expressed in Escherichia coli (Homo sapiens (Human), UniProt P08684); test: CYP3A4 fluorescent MBI test; assay type: in vitro ADME; conditions: pre-reaction time 0 or 30 minutes, substrate 7-BFC; read-out: CYP3A4 MBI, difference between IC50 values with and without preincubation
Experimental: The CYP3A4 fluorescent MBI test is a test of investigating enhancement of CYP3A4 inhibition of a compound by a metabolism reaction, and the test was performed using, as CYP3A4 enzyme expressed in Escherichia coli and employing, as an index, a reaction in which 7-benzyloxytrifluoromethylcoumarin (7-BFC) is debenzylated by the CYP3A4 enzyme to produce a metabolite, 7-hydroxytrifluoromethylcoumarin (HFC) emitting fluorescent light.
The reaction conditions were as follows: substrate, 5.6 μmol/L 7-BFC; pre-reaction time, 0 or 30 minutes; reaction time, 15 minutes; reaction temperature, 25° C. (room temperature); CYP3A4 content (expressed in Escherichia coli), at pre-reaction […], at reaction […] (at 10-fold dilution); concentration of a compound of the present, 0.625, 1.25, 2.5, 5, 10, 20 μmol/L (six points).
An enzyme in a K-Pi buffer (pH 7.4) and a compound solution of the present invention as a pre-reaction mixture were added to a 96-well plate at the composition of the pre-reaction, a part of it was transferred to another 96-well plate so that it was 1/10 diluted by a substrate in a K-Pi buffer, NADPH as a co-factor was added to initiate a reaction as an index (without preincubation) and, after a predetermined time of a reaction, acetonitrile/0.5 mol/L Tris(trishydroxyaminomethane)=4/1 (V/V) was added to stop the reaction. In addition, NADPH was added to a remaining preincubation solution to initiate a preincubation (with preincubation) and, after a predetermined time of a preincubation, a part was transferred to another plate so that it was 1/10 diluted with a substrate and a K-Pi buffer to initiate a reaction as an index. After a predetermined time of a reaction, acetonitrile/0.5 mol/L Tris(trishydroxyaminomethane)=4/1 (V/V) was added to stop the reaction. For the plate on which each index reaction had been performed, a fluorescent value of 7-HFC which is a metabolite was measured with a fluorescent plate reader. (Ex=420 nm, Em=535 nm).

[14] = CRTH2 receptor binding, categorized AAAA/AAA
[15] = IC50 of PGD2 (60 nM)-induced cAMP increase, human DP1 receptor expressing Jurkut cell
[16] = category of cAMP IC50, human DP1 receptor expressing Jurkut cell

T1 sequence (Q9Y5Y4 whole entry): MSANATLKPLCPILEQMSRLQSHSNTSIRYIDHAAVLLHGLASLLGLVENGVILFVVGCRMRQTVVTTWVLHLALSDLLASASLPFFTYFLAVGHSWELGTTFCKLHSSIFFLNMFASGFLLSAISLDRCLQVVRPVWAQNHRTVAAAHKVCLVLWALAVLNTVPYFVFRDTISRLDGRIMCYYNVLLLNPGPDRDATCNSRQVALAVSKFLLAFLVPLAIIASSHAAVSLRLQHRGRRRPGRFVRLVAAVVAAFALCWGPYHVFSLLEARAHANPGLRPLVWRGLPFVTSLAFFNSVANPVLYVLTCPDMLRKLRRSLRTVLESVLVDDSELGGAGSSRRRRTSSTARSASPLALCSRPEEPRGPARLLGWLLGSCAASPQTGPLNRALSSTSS
Sequence of CYP3A4 enzyme expressed in Escherichia coli (P08684 whole entry): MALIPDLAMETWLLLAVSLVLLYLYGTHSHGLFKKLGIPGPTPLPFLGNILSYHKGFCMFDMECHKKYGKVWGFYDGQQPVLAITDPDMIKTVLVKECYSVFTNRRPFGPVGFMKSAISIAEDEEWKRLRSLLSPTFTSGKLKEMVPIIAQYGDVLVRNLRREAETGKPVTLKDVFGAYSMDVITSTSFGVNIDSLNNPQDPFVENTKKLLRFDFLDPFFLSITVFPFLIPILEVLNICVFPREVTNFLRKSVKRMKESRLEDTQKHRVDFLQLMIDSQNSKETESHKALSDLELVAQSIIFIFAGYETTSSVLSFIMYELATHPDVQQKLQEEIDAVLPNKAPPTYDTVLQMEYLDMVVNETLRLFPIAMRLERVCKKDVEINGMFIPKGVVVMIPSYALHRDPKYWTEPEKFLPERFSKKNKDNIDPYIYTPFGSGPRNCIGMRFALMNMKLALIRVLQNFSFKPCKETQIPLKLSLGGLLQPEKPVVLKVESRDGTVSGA
Sequence of Human DP1 receptor (Q13258 whole entry): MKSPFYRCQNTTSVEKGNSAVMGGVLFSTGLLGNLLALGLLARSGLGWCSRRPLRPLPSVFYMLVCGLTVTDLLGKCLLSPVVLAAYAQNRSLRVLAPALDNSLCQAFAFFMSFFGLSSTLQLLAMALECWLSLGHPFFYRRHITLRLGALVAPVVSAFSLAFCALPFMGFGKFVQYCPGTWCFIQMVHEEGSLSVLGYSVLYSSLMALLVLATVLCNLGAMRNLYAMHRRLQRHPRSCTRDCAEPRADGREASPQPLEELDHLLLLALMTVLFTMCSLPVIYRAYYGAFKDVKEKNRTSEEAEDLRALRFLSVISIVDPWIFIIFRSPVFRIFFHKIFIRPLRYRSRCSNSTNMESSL
Sequence of DP receptor (Q13258 whole entry): as above
Sequence of CYP1A2 (P05177 whole entry): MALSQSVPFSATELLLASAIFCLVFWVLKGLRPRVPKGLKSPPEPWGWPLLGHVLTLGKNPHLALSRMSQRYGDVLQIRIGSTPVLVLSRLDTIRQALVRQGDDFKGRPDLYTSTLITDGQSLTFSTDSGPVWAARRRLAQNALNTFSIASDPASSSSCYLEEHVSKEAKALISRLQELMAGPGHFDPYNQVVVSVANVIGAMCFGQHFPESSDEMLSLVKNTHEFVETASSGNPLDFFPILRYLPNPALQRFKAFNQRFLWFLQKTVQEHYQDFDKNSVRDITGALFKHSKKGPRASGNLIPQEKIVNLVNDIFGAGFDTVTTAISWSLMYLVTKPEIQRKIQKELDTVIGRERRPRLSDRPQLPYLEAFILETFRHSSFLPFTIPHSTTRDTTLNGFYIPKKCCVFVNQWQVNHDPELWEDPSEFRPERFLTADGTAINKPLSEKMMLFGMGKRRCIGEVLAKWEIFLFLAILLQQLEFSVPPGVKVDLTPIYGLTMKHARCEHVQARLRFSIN
Sequence of CYP3A4 (P08684 whole entry): as the sequence (P08684 whole entry) above
Sequence of CYP2C19 (P33261 whole entry): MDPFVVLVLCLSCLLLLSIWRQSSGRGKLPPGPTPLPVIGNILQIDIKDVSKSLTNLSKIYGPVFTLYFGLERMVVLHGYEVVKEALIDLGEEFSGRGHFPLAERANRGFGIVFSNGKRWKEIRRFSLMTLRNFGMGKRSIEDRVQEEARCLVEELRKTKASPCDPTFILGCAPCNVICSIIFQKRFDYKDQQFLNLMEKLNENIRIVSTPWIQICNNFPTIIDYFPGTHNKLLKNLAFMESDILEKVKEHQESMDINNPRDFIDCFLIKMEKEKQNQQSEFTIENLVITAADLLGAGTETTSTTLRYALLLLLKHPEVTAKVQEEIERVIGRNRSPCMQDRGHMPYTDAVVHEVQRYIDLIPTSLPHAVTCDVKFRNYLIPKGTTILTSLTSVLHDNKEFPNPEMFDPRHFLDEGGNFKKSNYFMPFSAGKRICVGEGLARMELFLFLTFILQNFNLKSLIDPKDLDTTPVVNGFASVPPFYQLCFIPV
Sequence of CYP2D6 (P10635 whole entry): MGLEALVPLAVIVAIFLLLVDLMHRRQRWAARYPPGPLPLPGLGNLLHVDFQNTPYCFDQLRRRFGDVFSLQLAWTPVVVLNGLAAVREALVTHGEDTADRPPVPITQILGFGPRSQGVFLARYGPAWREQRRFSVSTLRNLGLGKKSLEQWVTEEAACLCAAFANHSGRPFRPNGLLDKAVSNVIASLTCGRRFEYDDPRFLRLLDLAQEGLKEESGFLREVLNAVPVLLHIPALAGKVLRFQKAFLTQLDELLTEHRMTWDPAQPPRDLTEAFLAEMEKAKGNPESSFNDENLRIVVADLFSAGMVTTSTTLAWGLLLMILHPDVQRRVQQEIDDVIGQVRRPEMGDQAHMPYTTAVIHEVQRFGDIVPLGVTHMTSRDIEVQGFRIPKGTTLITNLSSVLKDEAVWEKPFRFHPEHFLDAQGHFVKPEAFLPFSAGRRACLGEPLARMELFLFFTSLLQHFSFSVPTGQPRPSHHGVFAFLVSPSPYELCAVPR
Sequence of CYP2C9 (P11712 whole entry): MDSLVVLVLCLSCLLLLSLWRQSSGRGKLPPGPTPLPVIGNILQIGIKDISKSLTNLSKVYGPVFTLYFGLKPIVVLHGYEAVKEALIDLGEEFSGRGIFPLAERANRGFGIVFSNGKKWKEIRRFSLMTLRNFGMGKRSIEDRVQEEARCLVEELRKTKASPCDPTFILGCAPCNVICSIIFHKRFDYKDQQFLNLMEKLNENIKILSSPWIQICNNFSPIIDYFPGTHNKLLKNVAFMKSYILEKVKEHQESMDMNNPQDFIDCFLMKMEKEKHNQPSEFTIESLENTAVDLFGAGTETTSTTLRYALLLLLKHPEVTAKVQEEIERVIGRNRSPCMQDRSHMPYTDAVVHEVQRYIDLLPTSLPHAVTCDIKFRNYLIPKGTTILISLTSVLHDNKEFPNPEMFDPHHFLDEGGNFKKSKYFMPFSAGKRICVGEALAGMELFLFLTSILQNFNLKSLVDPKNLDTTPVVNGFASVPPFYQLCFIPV

IC50 [1] [nM]	solubility at 16 h [2] [µM]	Ki [3, 14] [nM]	Ki [3] [nM]	IC50 [4, 15] [nM]	IC50 [4, 16] [nM]	IC50 [5] [nM]	IC50 [6] [nM]	remaining rate after reaction (result heading prints '% inhibition') [7] [%]	IC50 [8] [nM]	IC50 [9] [nM]	IC50 [10] [nM]	IC50 [11] [nM]	IC50 [12] [nM]	difference in IC50 with vs without preincubation [13] [nM]	Structure (SMILES)
140	> 50	< 100	2.8	19	< 100	210	33	–	–	–	–	–	–	–	CC(C)Oc1ccc(S(=O)(=O)N2C[C@H](n3nc(CC(=O)O)c4ccc(F)cc43)[C@@](C)(F)C2)cc1 (racemic) [Compound I-85]
–	–	< 100	–	–	< 100	–	13	–	–	–	–	–	–	–	CC(C)Oc1ccc(S(=O)(=O)N2C[C@H](C)[C@@H](n3nc(CC(=O)O)c4ccc(F)cc43)C2)cc1 [Compound I-31]
–	–	< 100	16	–	100 to 5000	–	–	91.8	–	–	–	–	–	–	CC(C)Oc1ccc(S(=O)(=O)N2C[C@@H](N3CCCC3)[C@@H](n3nc(CC(=O)O)c4ccc(F)cc43)C2)cc1 [Compound I-47]
–	> 50	100 to 5000	680	–	< 100	–	–	–	> 20000	> 20000	> 20000	> 20000	> 20000	–	CC(C)Oc1ccc(S(=O)(=O)N2CC[C@H](n3nc(CC(=O)O)c4ccc(F)cc43)[C@@H](C)C2)cc1 [Compound I-74]
91	–	< 100	4.3	31	< 100	120	60	–	–	–	–	–	–	–	CC(C)Oc1ccc(S(=O)(=O)N2C[C@@H](C)[C@@H](n3nc(CC(=O)O)c4ccc(F)cc43)C2)cn1 [Compound I-123]
73	–	< 100	4.7	10	< 100	240	46	–	–	–	–	–	–	–	CC(C)Oc1ccc(S(=O)(=O)N2C[C@@H](C)[C@@H](n3nc(CC(=O)O)c4ccc(C(F)(F)F)cc43)C2)cc1 [Compound I-130]
210	–	< 100	7.4	31	< 100	190	–	–	–	–	–	–	–	–	CC(C)Oc1ccc(S(=O)(=O)N2C[C@@H](C)[C@@H](n3nc(CC(=O)O)c4ccc(C(F)(F)F)cc43)C2)cn1 [Compound I-131]
–	–	< 100	–	–	< 100	–	–	–	–	–	–	–	–	≤ 3000	CCOc1ccc(S(=O)(=O)N2C[C@@H](C)[C@@H](n3cc(CC(=O)O)c4ccc(C#N)cc43)C2)cc1 [Compound I-256]
–	–	< 100	–	–	100 to 5000	–	–	–	–	–	–	–	–	≤ 3000	Cc1c(CC(=O)O)c2ccccc2n1[C@H]1CN(S(=O)(=O)c2ccc(F)cc2)C[C@H]1C [Compound I-287]
–	–	< 100	–	–	< 100	–	–	–	–	–	–	–	–	≤ 3000	CCOc1ccc(S(=O)(=O)N2C[C@@H](C)[C@@H](n3c(C)c(CC(=O)O)c4ccccc43)C2)cc1 [Compound I-329]

Structure (SMILES)	IC50 [1] [nM]	solubility at 16 h [2] [µM]	Ki [3, 14] [nM]	Ki [3] [nM]	IC50 [4, 15] [nM]	IC50 [4, 16] [nM]	IC50 [5] [nM]	IC50 [6] [nM]	remaining rate after reaction (result heading prints '% inhibition') [7] [%]	IC50 [8] [nM]	IC50 [9] [nM]	IC50 [10] [nM]	IC50 [11] [nM]	IC50 [12] [nM]	difference in IC50 with vs without preincubation [13] [nM]
CCOc1ccc(S(=O)(=O)N2C[C@@H](C)[C@@H](n3nc(CC(=O)O)c4ccccc43)C2)cc1 [Compound I-97]	92	–	< 100	13	–	< 100	–	68	–	–	–	–	–	–	–

Reference: US9725442B2, “Heterocyclic derivative having PGD2 receptor antagonist activity” (Shionogi & Co., Ltd., priority 2011, dated 2017)
